Assay results from US9587205B2, “Activation of peroxygen bleach” (Warwick International Group Limited, priority 2012, dated 2017).

Test: Peracid (peracetic acid) release rate, iodometric titration
Assay type: physicochemical
Conditions: for Peracid Release (% th. max): time 5 mins, 20° C., 75 rpm, actual PAR/theoretical PAR
Experimental: The invention is illustrated by determining the rate of peracid release as a proportion of the maximum achievable based on acetyl groups available for reaction with perhydroxyl ion.
In this specification the method used to measure peracid generation is an iodometric titration carried out as follows: 25 g of a mixture of 85% by weight IEC A*base detergent, 10% sodium percarbonate and 5% activator, accurately weighed, is added to it deionised water at 20° C. in a beaker stirred by overhead stirrer at 75 rpm at t=0. After predetermined times from 2 mins, a 50 ml sample of the solution is added to a mixture of 15 ml glacial acetic acid and 5 ml of a 10% solution of potassium iodide at 0° C. and titrated against 0.05M sodium thiosulphate using a suitable indicator for iodine as quickly as possible. The theoretical amount of peracid released (PAR) is calculated as follows:
[formula] for TriAED the moles of peracid released is 1, for TAED it is 2.
The actual amount of peracid released (actual PAR) is calculated from the titre of thiosulphate and its molarity, based on the correlation of 2 moles thiosulphate to 1 mole of peracid. The results reported are of actual PAR/theoretical PAR for each time point.
Testing of peracetic acid release rate is carried out according to the standard test method described above.

Compound | Peracid Release (% th. max) | peracid release as a proportion of the maximum achievable (within two minutes of being added to water at 20° C.)
CC(=O)NCCN(C(C)=O)C(C)=O [Tri AED, N,N,N′-triacetylethylene diamine] | 92 | –
CC(=O)N(CCN(C(C)=O)C(C)=O)C(C)=O [TAED, Tetra-acetylethylene diamine] | 45 | less than 70%
